Data: publication PMC4205289, “Triptolide inhibits human immunodeficiency virus type 1 replication by promoting proteasomal degradation of Tat protein” (Retrovirology, 2014)

Columns and labels:
HIV-1 proviral DNA = experiment: Nested PCR of integrated proviral DNA in infected Jurkat cells; type: cell-based; details: HIV-1 NL4-3 MOI 0.5, 12 h post-infection, 118-D-24 50 μM, flavopiridol 20 nM, triptolide 5 nM
Description: (§1) The effects of the test compounds on HIV-1 proviral DNA and mRNA synthesis were analyzed by PCR. Jurkat cells were grown in 24-well plates and infected with the HIV-1 NL4-3 strain at an MOI of 0.5, and then test compounds were added at the desired concentrations. After incubation for 12 h, genomic DNA and mRNA from the infected cells were isolated using a Genomic DNA Mini Preparation Kit (Beyotime, China) and TRIzol reagent (Invitrogen Life Technologies), respectively. Nested PCR was used for the amplification of integrated proviral DNA, as previously described. To determine viral mRNA expression levels, 1 μg of RNA was treated with RQ1 RNase-Free DNase (Promega) and reverse transcribed using M-MLV Reverse Transcriptase (Promega) and random primers (Promega). An aliquot of cDNA was used as template for amplification of the HIV-1 Gag region as described elsewhere. […]
(§2) All of the PCR products were visualized on a UV transilluminator in 2% agarose gels stained with ethidium bromide. In preliminary experiments, the exponential range of the PCR amplification curve was determined for all of the PCR products by varying the amount of input DNA and the number of PCR cycles. Based on these experiments, appropriate conditions were chosen to perform semi-quantitative PCRs.

[1] = tested on: HIV-1 molecular clone pNL4-3.Luc.R-E-; experiment: Transient gene expression assay, pNL4-3.Luc.R-E- transfected into Jurkat cells; type: cell-based; details: 24 h, 118-D-24 50 μM, flavopiridol 20 nM, triptolide 0.2 ~ 5 nM
Description: Figure 3 Triptolide inhibits HIV-1 transcription. (A) Time-of-addition analysis. TZM-bl cells were infected with HIV-1 (MOI = 0.5, strain NL4-3), and the virus inoculum was removed after 1 h of absorption. Test compounds (dextran sulfate at 10 μg/mL, zidovudine at 1 μM and triptolide at 5 nM) were added at the indicated time points after infection. Reporter signal was monitored at 48 h post-infection as a measure of viral replication. (B) The effect of triptolide on HIV-1 proviral DNA formation. Jurkat cells were infected with HIV-1 (MOI = 0.5, strain NL4-3) in the presence of the test compounds (INI 118-D-24, 50 μM; flavopiridol, 20 nM; and triptolide, 5 nM). Proviral DNA synthesis was determined by nested PCR analysis at 12 h post-infection. (C) The effect of triptolide on HIV-1 mRNA synthesis. Jurkat cells were infected with HIV-1(MOI = 0.5, strain NL4-3) in the presence of the test compounds (INI 118-D-24, 50 μM; flavopiridol, 20 nM; triptolide, 5 nM). Viral mRNA (the Gag region) content was determined by reverse-transcription PCR analysis 12 h post-infection. (D) Inhibition of luciferase expression encoded in pNL4-3.Luc.R-E- by tiptolide. […]
To further confirm that triptolide interferes with HIV-1 transcription, a transient gene expression assay was performed. […] At 24 h after transfection, viral gene transcription (indicated by luciferase activity) was determined. […]

HIV-1 mRNA = experiment: Reverse-transcription PCR of viral mRNA (Gag region) in infected Jurkat cells; type: cell-based; details: HIV-1 NL4-3 MOI 0.5, 12 h post-infection, 118-D-24 50 μM, flavopiridol 20 nM, triptolide 5 nM
Description: as §1, §2

HIV-1 NL4-3 = experiment: Time-of-addition experiment in TZM-bl cells; type: cell-based
Description: TZM-bl cells seeded in 96-well plates (2 × 10^4 /well) were infected with HIV-1 NL4-3 (MOI = 1). The virus inoculum was removed after 1 h of infection. Test compounds were added at different time points after infection (0 h, 2 h, 4 h, 6 h, 8 h, and 10 h). Dextran sulfate was added at 10 μg/mL, zidovudine at 1 μM and triptolide at 5 nM. At 48 h post-infection, the virus replication level was determined by analyzing luciferase activity in the cells as described above.

FLAG-Tat = tested on: T1, FLAG-Tat; experiment: Proteasome inhibition rescue of Tat expression, Western blot, HeLa cells; type: cell-based, HIV-1 NL4-3
T1 construct: expressed in transfected cells; host or cells: HeLa
Description: Figure 6 Triptolide reduces Tat protein stability by enhancing proteasomal degradation of Tat. (A) The effect of triptolide on Tat mRNA levels. HeLa cells were transfected with pEF1-Tat in the presence of increasing concentrations of triptolide. Cells were harvested 48 h post-transfection. The steady-state mRNA levels of Tat and GAPDH were examined using semi-quantitative reverse transcription PCR analysis. RT, reverse transcriptase. (B) The effect of triptolide on Tat protein degradation. HeLa cells were transfected with pEF1-FLAG-Tat in the presence of 5 nM triptolide or vehicle (DMSO). At 28 h post-transfection, cells were treated with 20 μg/mL of CHX to arrest protein synthesis. At 0, 1, 2, 3 h post-treatment, cells were harvested to determine protein expression levels using Western blot analysis. (C) The band intensities of FLAG-Tat in panel B were measured, and their natural log values were plotted as a function of time. Results were presented as the mean plus the standard deviations (n = 3). (D) Proteasome inhibition restores Tat protein expression. HeLa cells were transfected with pEF1-FLAG-Tat in the presence or absence of 5 nM triptolide. At 48 h post-transfection, cells were treated with 20 μM of MG132, and cultured for an additional 3 h before harvest. Protein expression levels were determined by Western blot analysis. TEXT PRINTED IN THE PICTURE: (C) DMSO: Half-lives: 2.0 h | (C) Triptolide: Half-lives: 0.4 h
Cells were washed with phosphate buffered saline (PBS) and lysed with radio immunoprecipitation assay lysis buffer supplemented with complete mini protease inhibitor cocktail (Roche) at 4°C for 1 h. Proteins from cell lysates were separated by SDS-PAGE and transferred to polyvinylidene difluoride membranes. After overnight incubation with primary antibodies at 4°C, each blot was probed with horseradish peroxidase-conjugated secondary antibody. Immunoreactive signals were detected with an enhanced chemiluminescence substrate (Thermo Scientific) using an AlphaEaseH FC Imaging System (Alpha Innotech Corporation).

Compound: CN1CC[C@H](c2c(O)cc(O)c3c(=O)cc(-c4ccccc4Cl)oc23)[C@H](O)C1 [flavopiridol, reference compound]
- effect on proviral DNA formation (integration) (HIV-1 proviral DNA): no effect on virus integration
- effect on luciferase expression from transfected pNL4-3.Luc.R-E- [1]: significantly reduced luciferase expression
- effect on viral mRNA synthesis (HIV-1 mRNA): repress viral mRNA synthesis

Compound: Cc1cn([C@H]2C[C@H](N=[N+]=[N-])[C@@H](CO)O2)c(=O)[nH]c1=O [zidovudine]
- inhibition at 1 µM (HIV-1 NL4-3; Human immunodeficiency virus 1, NL43, TZM-bl, read-out: inhibitory activity retained): 71%

Compound: Dextran sulfate sodium salt
- time-of-addition inhibition profile (HIV-1 NL4-3; dextran sulfate at 10 μg/mL, luciferase at 48 h): dramatic early loss in activity

Compound: MG132
- increase of Tat level (FLAG-Tat; 20 μM MG132 for 3 h, without triptolide, relative to DMSO control): 30%
- restoration of Tat protein, increase as % of Tat level in DMSO control (FLAG-Tat; 20 μM MG132 for 3 h in the presence of 5 nM triptolide): 30%
